Marks after values point to notes of the source that are not given here.
Assays:
[1] = tested on: bcl-2; test: bcl-2 expression (RT-PCR) in cultured HT-29 cells; type: cell-based, human; details: p65 siRNA transfection or 10 μg DHMEQ/ml, 12 h after removing the inhibitor
Description: Transfection of siRNA was performed as explained under “Materials and Methods”. (A) western blot analysis of p65 in cells transfected with p65 siRNA, or NS siRNA. For comparison NF-κB binding to DNA (B) and bcl-2 expression (RT-PCR) (C) were determined in HT-29 cells transfected with p65 siRNA or treated with dehydroxymethylepoxyquinomicin (DHMEQ). For this purpose cultured HT-29 cells (24 h after seeding) were incubated in the absence or in the presence of 10 μg DHMEQ/ml, and NF-κB activation and bcl-2 expression were measured 2 h and 12 h, respectively, after removing the inhibitor.
Total RNA was isolated using the trizol kit from Invitrogen and following manufacturer's instructions. cDNA was obtained using a random hexamer primer and a MultiScribe Reverse Transcriptase kit as described by the manufacturer (TaqMan RT Reagents, Applied Biosystems, Foster City, Calif.). […]
Real-time quantitation of the mRNA relative to GAPDH was performed with a SYBR Green I assay, and a iCycler detection system (Biorad, Hercules, Calif.). […] The increase in fluorescence was measured in real time during the extension step. The threshold cycle (CT) was determined, and then the relative gene expression was expressed as: fold change=2^−Δ(ΔCT), where ΔCT=CT target−CT GAPDH, and Δ (ΔCT)=ΔCT treated−ΔCT control. […]

[2] = tested on: NF-κB p50/65; test: NF-κB DNA binding ELISA in HT-29 nuclear extracts; type: cell-based, human; details: HT-29 cells; p65 siRNA transfection or 10 μg DHMEQ/ml, 2 h after removing the inhibitor
Description: HT-29 cells were cultured and treated with PFs as indicated in the caption to FIG. 1. (A) NF-κB binding to DNA (measured 3 h after the last PF addition). Recombinant human TNFα (0.5 nM, Sigma, St. Louis, Mo.) was added 6 h before the last PF addition. IκBα (B) and P-IκBα (C) analysis by western blot (lane 1, TNFα; lane 2, control; lane 3, […]). Relative densitometric intensities for protein bands from western blots of IκBα and P-IκBα) were normalized to β-actin (black bar, TNFα; white bar, control; grey bar, […]). […] Transfection of siRNA was performed as explained under “Materials and Methods”. (A) western blot analysis of p65 in cells transfected with p65 siRNA, or NS siRNA. For comparison NF-κB binding to DNA (B) and bcl-2 expression (RT-PCR) (C) were determined in HT-29 cells transfected with p65 siRNA or treated with dehydroxymethylepoxyquinomicin (DHMEQ). […] Nuclear extract were prepared as previously described (18). An enzyme linked immunosorbent assay (ELISA) was performed in line with the manufacturer's protocol for a commercial kit (Chemiluminiscent NF-κB p50/65 Transcription Factor Assay, Oxford Biomedical Research, Oxford, Mich.). […] The DNA bound NF-κB is selectively recognized by the primary antibody, which, in turn, is detected by the secondary antibodyalkaline phosphatase conjugate. […]

[3] = tested on: bcl-2; test: Bcl-2 protein enzyme immunoassay in xenograft samples; type: in vivo, human; details: single treatment (PQ or SOD2-AS)
Description: (§1) The Tet-off gene expression system (Clontech, Palo Alto, Calif.) was used, as previously reported (17), to insert the human bcl-2 gene and for transfection into HT-29 cells following manufacturer's instructions. Bcl-2 protein was quantitated in the soluble cytosolic fraction by enzyme immunoassay (17) using a monoclonal antibody-based assay from Sigma (one unit of Bcl-2 was defined as the amount of Bcl-2 protein in 1000 non-transfected HT-29 cells).

[4] = tested on: HT-29 xenografts; test: HT-29 xenograft growth; type: in vivo, nu/nu nude mice; details: Table 3B; HT-29; 30 days after inoculation
Description: Tumor growth was measured during a 30-day period. Tumor volume, one week after inoculation and before PF administration, was of 56+15 mm3. A. […] B. Growth profile of control ([…]) and t-PTER- and QUER (∘) (20 mg of each PF/kg)-treated HT-29-bearing mice. Data are means±S.D. of 18-20 mice per group. The significant test refers, for all groups, to the comparison between PTER and/or QUER and controls (treated with physiological saline) (*P<0.01). For HT-29 cancer cell xenograft experiments, female nu/nu nude mice (ages 6 to 8 weeks; […] Tumor volume was calculated based on two dimensions, measured using calipers, and was expressed in cubic millimeters according to the formula: […] For histological analysis the surgical and xenograft tissue samples were fixed in 4% formaldehyde, paraffin embedded, and stained with hematoxilin & eosin and safran. […] This study was conducted in compliance with international laws and policies (EEC Directive 86/609, OJ L 358. 1, Dec. 12, 1987; and NIH Guide for the Care and Use of Laboratory Animals, NIH Publ. No. 85-23, 1985). X rays were administered using a […] SL75 linear accelerator from Philips. For this purpose each mouse was anesthetized with nembutal (50 mg/kg i.p.), and fixed on a Perspex platform.

[5] = tested on: SOD2; test: SOD activity in xenograft samples; type: in vivo, human
Description: (§2) Tumor tissue was homogenized in 0.1M phosphate buffer (pH 7.2) at 4° C.
(§3) Superoxide dismutase (SOD) activity was measured as described by Flohé and Otting (14), using 2 mM cyanide in the assay medium to distinguish mangano-type enzyme (SOD2) from the cuprozinc type (SOD1).

[6] = tested on: SOD1; test: SOD activity in xenograft samples; type: in vivo, human; details: single treatment (PQ or SOD2-AS)
Description: as §2, §3

[7] = tested on: HT-29/Tet-bcl-2 xenografts; test: HT-29/Tet-bcl-2 xenograft growth; type: in vivo, mice; details: Table 3B, 30 days after inoculation
Description: For HT-29 cancer cell xenograft experiments, female nu/nu nude mice (ages 6 to 8 weeks; Charles Rivers Laboratories, Wilmington, Mass.) were inoculated s.c. with 5×10^6 HT-29 or HT-29-GFP cells per mouse. Tumor volume was calculated based on two dimensions, measured using calipers, and was expressed in cubic millimeters according to the formula: V=0.5a×b2, where a and b are the long and the short diameters of the tumor, respectively. For histological analysis the surgical and xenograft tissue samples were fixed in 4% formaldehyde, paraffin embedded, and stained with hematoxilin & eosin and safran. Mice were monitored for at least 30 days after inoculation, and tumor measurements were taken on day 5, 10, 15, 20, 25, and 30. This study was conducted in compliance with international laws and policies (EEC Directive 86/609, OJ L 358. 1, Dec. 12, 1987; and NIH Guide for the Care and Use of Laboratory Animals, NIH Publ. No. 85-23, 1985). […]
as §1

| Molecule | bcl-2 expression [1] | NF-κB binding to DNA [2] | Bcl-2 levels ([3]; HT-29/tet-Bcl-2 xenograft) | Bcl-2 levels ([3]; HT-29 xenograft) [Units/mg protein] | Tumor volume [4] | SOD2 activity ([5]; HT-29/tet-Bcl-2 xenograft, single treatment (PQ or SOD2-AS)) [Units/mg protein] | SOD2 activity ([5]; HT-29 xenograft, single treatment (PQ 20 mg each/kg or SOD2-AS 5 mg/kg each 3 days)) | SOD1 activity ([6]; HT-29/tet-Bcl-2 xenograft) [Units/mg protein] | SOD1 activity ([6]; HT-29 xenograft) [Units/mg protein] | Tumor volume [7] |
| --- | --- | --- | --- | --- | --- | --- | --- | --- | --- | --- |
| O=C(NC1=CC(=O)[C@H]2O[C@H]2[C@H]1O)c1ccccc1O [DHMEQ, dehydroxymethylepoxyquinomicin] | significant decrease | significant decrease | – | – | – | – | – | – | – | – |
| SOD2-AS: Fully phosphorothioated 21-mer human SOD2 antisense oligodeoxynucleotide, 5′-GGAACCUCACAUCAACGCGCA-3′ (DNA, all phosphorothioate, methylation of C and T or U not given here) | – | – | 81 ± 9^a Units/mg protein | 19 ± 3 | 2337 ± 266^b mm^3 | 0.33 ± 0.12 | 0.27 ± 0.056^b Units/mg protein | 6.3 ± 0.48 | 5.77 ± 0.62 | 2942 ± 387^ab mm^3 |

Source: patent US20110136751A1, “Use of Polyphenols in the Treatment of Cancer” (Green Molecular, priority 2009, published 2011)
